B1: SC35: recombinant human SR protein SC35 used to complement S100 extract (protein, UniProt Q01130 2-221, looked up)
Serine/arginine-rich splicing …: SYGRPPPDVEGMTSLKVDNLTYRTSPDTLRRVFEKYGRVGDVYIPRDRYTKESRGFAFVRFHDKRDAEDAMDAMDGAVLDGRELRVQMARYGRPPDSHHSRRGPPPRRYGGGGYGRRSRSPRRRRRSRSRSRSRSRSRSRSRYSRSKSRSRTRSRSRSTSKSRSARRSKSKSSSVSRSRSRSRSRSRSRSPPPVSKRESKSRSRSKSPPKSPEEEGAVSS

What was measured:
SMN2 pre-mRNA exon 7 = assay: S100 extract complementation in vitro splicing, SMN2 pre-mRNA; format: biochemical, human
Description: (§1) Finally, splicing of SNM1 and SMN2 pre-mRNAs in S100-complementation experiments was used to test the SR protein specificity of the ESEs. S100 extract is a post-nuclear, post-ribosomal fraction capable of supporting in vitro splicing only when complemented with one or more SR proteins. When the SMN pre-mRNAs were incubated in S100 extract alone, spliced products were barely detectable (FIG. 17b, lanes 5-8).
(§2) 5′ capped, T7 runoff transcripts from purified PCR products were uniformly labeled with [α-^32P] UTP, purified by denaturing PAGE, and spliced in HeLa cell nuclear or S100 extracts, as described. Briefly, 10 fmol of transcript was incubated in 12.5-μl standard splicing reactions containing 3 μl of nuclear extract or 2 μl of S100 extract complemented with 4 pmol of recombinant SC35 or SF2/ASF. The MgCl2 concentration was 2.4 mM for BRCA1 transcripts and 1.6 mM for SMN transcripts. After incubation at 30° C. for 4 hours, RNA was extracted and analyzed on 12% (BRCA1) or 8% (SMN) denaturing polyacrylamide gels, followed by autoradiography and phosphorimager analysis. Exon inclusion was calculated as a percentage of the total amount of spliced mRNAs, i.e., included mRNA×100/(included mRNA+skipped mRNA).

SMN1 pre-mRNA exon 7 = assay: S100 extract complementation in vitro splicing, SMN1 pre-mRNA; format: biochemical, human; settings: S100 extract complemented with 4 pmol recombinant SR protein, 4 hours
Description: as §1, §2

β-globin pre-mRNA = assay: S100 extract complementation with β-globin pre-mRNA; format: biochemical; settings: data not shown

Row | Molecule | exon 7 inclusion, SMN2 pre-mRNA (SMN2 pre-mRNA exon 7; S100 extract complemented with 4 pmol recombinant SR protein, 4 hours) | exon 7 inclusion, SMN2 context, high concentrations of SR protein (SMN2 pre-mRNA exon 7; S100 extract, high concentrations, data not shown) | exon 7 inclusion, SMN1 pre-mRNA (SMN1 pre-mRNA exon 7) | complementation of S100 extract (β-globin pre-mRNA)
1 | SF2/ASF: recombinant human SR protein SF2/ASF used to complement S100 extract | much less efficiently | promoted significant inclusion | promoted exon 7 inclusion | –
2 | B1 | – | – | failed to drive exon 7 inclusion | efficiently complemented S100 extract

— patent US20140011977A1, “CHIMERIC MOLECULES TO MODULATE GENE EXPRESSION” (Cold Spring Harbor Laboratory, priority 2000, published 2014)
